From patent US11840686B2, “Modulation of prekallikrein (PKK) expression” (Ionis Pharmaceuticals, Inc., priority 2013, dated 2023) come the findings set out here.

Data set [1] relates to captopril and ISIS 461756-induced vascular permeability. The experiment in a line: Evans Blue vascular permeability in captopril and ISIS 461756-induced angioedema mouse models (Example 11). The class given is in vivo. The settings on record: for OD600 nm of Evans Blue dye, Colons / OD600 nm of Evans Blue dye, Ears / OD600 nm of Evans Blue dye, Feet / OD600 nm of Evans Blue dye, Intestines: captopril Yes.
Description: Hereditary angioedema (HAE) is characterized by local swelling and increase in vascular permeability in subcutaneous tissues (Morgan, B. P. N. Engl. J. Med. 363: 581-83, 2010). It is caused by a deficiency of the C1 inhibitor, a protein of the complement system. Two mouse models were used in this study including an established mouse model of C1-INH deficiency and a captopril-induced edema model, both of which cause vascular permeability, a hallmark of HAE. Reversal of vascular permeability is accompanied by increased plasma levels of high molecular weight kininogen (HMWK).
In the first model, angioedema was induced by treatment with Captopril, a known antihypertensive agent, which increases vascular permeability in mice and replicates the pathology of hereditary angioedema.
In the second model, angioedema was induced by treatment with ISIS 461756, an antisense oligonucleotide which targets murine C1 inhibitor mRNA, which increases vascular permeability in mice and replicates the pathology of hereditary angioedema. ISIS 461756 (SEQ ID NO: 2245; […]) is a 5-10-5 MOE gapmer targeting nucleosides 1730-1749 of NM_009776.3 (SEQ ID NO: 2243).
The effect of HOE-140 and ISIS 482584, an antisense oligonucleotide inhibitor of PKK, were evaluated in the Captopril and ISIS 461756-induced mouse models of vascular permeability. Some of the murine groups were treated with HOE-140, a selective antagonist of the bradykinin B2 receptor, which blocks vasodilation and vascular permeability (Cruden and Newby, Expert Opin. Pharmacol. 9: 2383-90, 2008). Other mice were treated with ISIS 482584, which inhibits PKK mRNA expression. The effect of treatment with HOE-140 was compared with the effect of treatment with ISIS 482584.
Group 1 consisted of 4 C57BL/6J-Tyrc-2J mice treated with PBS administered subcutaneously twice a week for 4 weeks. No other treatment was administered to Group 1 which served as a control group to measure the basal level of vascular permeability.
Group 2 consisted of 8 C57BL/6J-Tyrc-2J mice treated with PBS administered subcutaneously twice a week for 4 weeks. At the end of the treatment, the mice were intraperitoneally administered 20 μg of captopril. Group 2 served as a PBS control group for captopril-induced vascular permeability.
(§1) Group 3 consisted of 8 C57BL/6J-Tyrc-2J mice treated with PBS administered subcutaneously twice a week for 4 weeks. On day 14, the mice were treated with 50 mg/kg of the antisense oligonucleotide targeting C1 inhibitor, ISIS 461756, administered subcutaneously twice a week for 2 weeks. At the end of the treatment period, the mice were intraperitoneally administered 20 μg of captopril. Group 3 served as a PBS control group for captopril and ISIS 461756-induced vascular permeability.
Group 4 consisted of 8 C57BL/6J-Tyrc-2J mice treated with PBS administered subcutaneously twice a week for 4 weeks. On day 14, the mice were treated with 50 mg/kg of the antisense oligonucleotide targeting C1 inhibitor, ISIS 461756, administered subcutaneously twice a week for 2 weeks. At the end of the treatment period, the mice were intraperitoneally administered 20 μg of captopril. The mice were then also intraperitoneally administered 30 μg of HOE-140. Group 4 served as a positive control for inhibition of vascular permeability with HOE-140.
as §1, with “5” for “3”, “40 mg/kg of control oligonucleotide ISIS 141923, a 5-10-5 MOE gapmer with no known murine target, ([…]; SEQ ID NO: 2246)” for “PBS”, “a” for “a PBS”, “permeability. […]” for “permeability.”

Data set [2] deals with vascular leakage. The experiment in a line: Vascular leakage, plasma Evans Blue OD620, captopril model (Example 13). In kind it is in vivo, mouse. The settings on record: for Percentage of OD620 nm of Evans Blue dye compared to the PBS basal control, Plasma: captopril Yes. On the procedure: Groups 4, 5, 6, 7, 8, and 9 consisted of 8 mice each and were treated with 2.5 mg/kg, 5 mg/kg, 10 mg/kg, 20 mg/kg, 40 mg/kg, or 80 mg/kg (corresponding to 5 mg/kg, 10 mg/kg, 20 mg/kg, 40 mg/kg, 80 mg/kg, or 160 mg/kg per week), respectively of ISIS 482584 administered subcutaneously twice a week for 3 weeks. At the end of the treatment period, the mice of all the groups were intraperitoneally administered 20 μg of captopril. Groups 4-9 served as the experimental treatment groups for examining the effect of varying doses of ISIS 482584 on captopril-induced vascular permeability.
All the groups were then injected with 30 mg/kg of Evans Blue solution in the tail vein. The mice were sacrificed 30 min after the Evans Blue solution administration and colons, feet, ears, and intestines were harvested. Blood samples were taken through cardiac puncture.
The blood drawn through cardiac puncture was immediately mixed with 3 times the volume of ice-cold ethanol. The solution was centrifuged at 15,000 g for 20 minutes at 4° C. to remove cell debris and precipitated plasma proteins. The ethanol extracts were further purified by ultra-filtration through a 10 kDa MWCO filter. The color intensity of the ethanol extracted plasma solution was then measured at OD620 nm. The results are presented in Table 67 as percentage increase or decrease of the OD values of the Group 1 PBS control.

Where [3] appears, read: ISIS 461756 No, 40 mg/kg sc twice a week 4 weeks.
Setting [4] is: ISIS 461756 Yes, ISIS oligonucleotides 40 mg/kg sc twice a week 4 weeks, HOE-140 30 μg ip.

Strand notation (5' to 3'): a small letter for the sugar, then the base; units joined by * are phosphorothioate-linked, units joined directly phosphodiester-linked; [ ] holds rarer units or linkages, { } end groups; capitals alone tell only the bases. e = 2'-O-(2-methoxyethyl) (MOE); [5mC] = 5-methylcytosine; d = 2'-deoxy (DNA)

With “ISIS 482584: 5-10-5 MOE gapmer targeting murine PKK, GGCATATTGGTTTTTGGAAT; SEQ ID NO: 2244 (antisense eG*eG*e[5mC]*eA*eT*dA*dT*dT*dG*dG*dT*dT*dT*dT*dT*eG*eG*eA*eA*eT)”, the “vascular permeability” value in data set [1] (40 mg/kg s.c. twice a week for 4 weeks, mice treated with captopril or captopril and ISIS 461756, vs PBS controls) is on record as “prevents vascular permeability”. Besides, the “OD600 nm of Evans Blue dye, Colons” value in data set [1] (setting [3]) is 0.27; in data set [1] (setting [4]), 0.21. Besides, the “OD600 nm of Evans Blue dye, Ears” value in data set [1] (setting [3]) was 0.14; in data set [1] (setting [4]), 0.06. Also, the “OD600 nm of Evans Blue dye, Feet” value in data set [1] (setting [3]) and in data set [1] (setting [4]) was 0.07 in each case. Besides, the “OD600 nm of Evans Blue dye, Intestines” value in data set [1] (setting [3]) turned out to be 0.30; in data set [1] (setting [4]) it was 0.34. Also, the “vascular leakage” value in data set [2] (160 mg/kg/week and 80 mg/kg/week, vs PBS negative control treated with captopril) is “less vascular leakage”. Moreover, the “Percentage of OD620 nm of Evans Blue dye compared to the PBS basal control, Plasma” value in data set [2] (dose 5 mg/kg) was −23%; in data set [2] (dose 10 mg/kg), −20%; in data set [2] (dose 20 mg/kg) it was −26%; in data set [2] (dose 40 mg/kg), −31%; in data set [2] (dose 80 mg/kg), 40%; in data set [2] (dose 160 mg/kg), 91%.
Consider `NC(N)=NCCC[C@@H](N)C(=O)N[C@@H](CCCN=C(N)N)C(=O)N1CCC[C@H]1C(=O)N1C[C@H](O)C[C@H]1C(=O)NCC(=O)N[C@@H](Cc1cccs1)C(=O)N[C@@H](CO)C(=O)N1Cc2ccccc2C[C@@H]1C(=O)N1[C@H](C(=O)N[C@@H](CCCN=C(N)N)C(=O)O)C[C@@H]2CCCC[C@@H]21` [HOE-140, Icatibant, reference compound], for which, in data set [1] (setting [4]), the “OD600 nm of Evans Blue dye, Colons” value is given as 0.14; the “OD600 nm of Evans Blue dye, Ears” value came to 0.09; the “OD600 nm of Evans Blue dye, Feet” value was found to be 0.07; the “OD600 nm of Evans Blue dye, Intestines” value is recorded as 0.18. The “Percentage of OD620 nm of Evans Blue dye compared to the PBS basal control, Plasma” value in data set [2] (HOE-140 30 μg ip) was found to be 5%.
